Assay results: patent US5998596A, “Inhibition of protein kinase activity by aptameric action of oligonucleotides” (The United States of America as represented by the …)

Tests used:
[1] = test system: p145^abl kinase; assay: Phosphorylation of exogenous substrate enolase by p145abl; format: biochemical; conditions: ODN1 concentrations of up to 50 μM
Procedure: Immunoprecipitation kinase assays of p210^bcr-abl p145^abl were performed as described, with modifications (15). Briefly, for p210^bcr-abl, 1 μg of anti-bcr antibody (clone 7C6, Oncogene Science, Uniondale, N.Y.) was added to lysates prepared from 0.5-1×10^6 K562 cells. For p145^abl, 1 μg of anti-c-abl antibody (clone 24-21), which binds to the C-terminal domain of p145^abl, was added to lysates prepared from 5×10^6 PC3M cells. After incubating 1 hour at 4° C., complexes were precipitated by incubating with protein A-Sepharose coated with rabbit anti-mouse immunoglobulin (Cappel Research Products, Durham, N.C.) for 30 minutes. The complexes were then washed as follows: ABL lysis buffer×2, PBS×1, and ABL assay buffer×1 (24 mM imidazole, pH 7.2, 1 mg/ml bovine serum albumin, and 10 mM MnCl). For p145^abl assays ABL assay buffer contained 20 mM MnCl. To access the activity of p210^bcr-abl on substrate phosphorylation, acid inactivated enolase (Sigma Chemical Co., St. Louis, Mo.) was added as described (15).
ODNs were added to kinase reaction buffers not more than 5 minutes prior to the addition of ATP. Reactions were initiated by the addition of [γ^-32 P] ATP (3000 Ci/mmole; Amersham Corp., Arlington Heights, Ill.) and quenched by the addition of 5× gel loading buffer and heating to 95° C. […]

[2] = test system: Epidermal growth factor receptor (EGFR); assay: EGFR autophosphorylation immunoprecipitation kinase assay; format: biochemical
From the text: (§1) The p210^bcr-abl kinase, src kinase and cdc-2 kinase were immunoprecipitated from K562 cells. The p145^abl kinase was immunoprecipitated from PC3M cells, PDGF receptor kinase from 3T3 cells, and EGF receptor kinase from A431 cells. MAP kinase was utilized as a pure protein and lck kinase was immunoprecipitated from peripheral blood lymphocytes of a normal volunteer.
(§2) Epidermal growth factor receptor (EGFR) was immunoprecipitated with 10 ,g anti-EGFR antibody (clone LA1) and human recombinant epidermal growth factor (both from Upstate Biotechnology Inc., Lake Placid, N.Y.). The assay was performed as described (17) but without removing the EGFR from the protein A-antibody solid support. Instead, epidermal growth factor, at a final concentration of 100 nM, was added to the kinase reaction mixture. Platelet derived growth factor receptor (DGFR) was immunoprecipitated with anti-human type A/type B PDGFR antibody (Upstate Biotechnology Inc.) and immune complex kinase assays performed as referenced (18) except that protein A-Sepharose coated with rabbit anti-mouse immunoglobulin was used instead of formalin-fixed Staphylococcus aureus to bind PDGFR-antibody conjugates. C-src was immunoprecipitated with anti-v-src antibody (Ab-1; Oncogene Science) and assayed as previously described (19) with the addition of enolase as exogenous substrate. […]

[3] = test system: lck kinase; assay: Immunoprecipitation kinase assay of lck; format: biochemical
From the text: as §1, §2

[4] = test system: src kinase; assay: Immunoprecipitation kinase assay of c-src with enolase as substrate; format: biochemical, human
From the text: as §1, §2

[5] = test system: p145^abl kinase; assay: Immunoprecipitation kinase assay of p145abl; format: biochemical
Procedure: as §1
Cells were washed in phosphate buffered saline (PBS) and 0.5-5×10^6 cells were solubilized in 1 ml of the specified cell lysis buffers. Unless otherwise stated, all cell lysis buffers contained the following protease inhibitors: 20 μg/ml leupeptin, 1 μg/ml aprotinin, and 1 mM phenylmethylsulfonylfluroide. For p210^bcr-abl and […] immunoprecipitation, cells were lysed with ABL lysis buffer (25 mM imidazole, pH 7.2, 0.5% NP40, 50 mM NaCl, 1 mM Na3 VO4) and lysates were clarified at 14,000 g. 4° C. for 30 minutes. Cell lysis for all other proteins was performed according to the references describing the various immunoprecipitation kinase assays.
Immunoprecipitation kinase assays of p210^bcr-abl p145^abl were performed as described, with modifications (15). Briefly, for p210^bcr-abl, 1 μg of anti-bcr antibody (clone 7C6, Oncogene Science, Uniondale, N.Y.) was added to lysates prepared from 0.5-1×10^6 K562 cells. […]

[6] = test system: K562 cells; assay: K562 colony formation in soft agar; format: cell-based, human; conditions: 50 μM ODN, two weeks, not electroporated
Procedure: K562, NIH 3T3, and A431 cells were purchased from the American Type Culture Collection (Rockville, Md.). PC3M prostate cancer cells were a generous gift from J. Trepel (National Institutes of Health, Bethesda, Md.). K562 and PC3M cells were cultured in RPMI 1640 with 10% heat-inactivated fetal bovine serum (FBS; GIBCO BRL, Grand Island, N.Y.) while NIH 3T3 and A431 cells were cultured in Dulbecco's modified Eagle's medium (Biofluids, Rockville, Md.) with 10% heat inactivated FBS. Cells were maintained at 37° C., 6% carbon dioxide with biweekly media changes. For soft agar cloning, cells were suspended in 0.3% low melting temperature agarose (SeaPlaque FMC BioProducts, Rockland, Me.) in RPMI 1640 with 10% total calf serum and maintained as above.
To evaluate the effects of these various ODNs of K562 cell growth, both growth in liquid culture and growth in soft agar were examined. […] Cells were electroporated in the presence of 50 μM ODN and kept in liquid culture. For soft agar cloning experiments, cells were not electroporated, but were grown in the presence of 50 μM ODN for two weeks. Liquid cultures were replenished with fresh medium containing 50 μM ODN. Two weeks following incubation in liquid culture, the number of trypan blue-excluding cells was determined. No effect on cell growth in liquid culture could be observed with any ODN tested (data not shown).

[7] = test system: MAP kinase; assay: MAP kinase assay with purified enzyme; format: biochemical; conditions: Cerenkov counting of excised gel slices
From the text: as §1, §2

[8] = Cerenkov counting of excised gel slices
[9] = ODN1 concentrations greater than 2 logs above the Ki for p210^bcr-abl

For “5'-GTCCACCATGGCGCGGCCGGC-3' [ODN1] (phosphorothioate caps, further chemistry not given here) [21mer ODN complementary to nucleotides -12 to +9 of the p210bcr-abl mRNA, phosphorothioate capped unless otherwise specified]”, the “inhibition of enolase phosphorylation by p145^abl” value [1] was “no significant inhibition”, the IC50 [2, 8] was over 100 µM and the “inhibition of EGF receptor (in words)” value [2, 9] was “not significantly inhibited”. The IC50 [3, 8] was over 50 µM, the “inhibition of lck (in words)” value [3, 9] was “not significantly inhibited” and the IC50 [4, 8] was over 100 µM. For the same substance, the “inhibition of src (in words)” value [4, 9] was “not significantly inhibited”, the “sensitivity of p145^abl compared with p210^bcr-abl” value [5] was “equally sensitive” and the IC50 ([5]; Cerenkov counting of excised gel slices, mean ± SD) was 0.62 ± 0.24 µM. The “ability to form colonies in soft agar” value [6] was “inhibited the ability of these cells to form colonies in soft agar” and the IC50 [7] was over 100 µM.
